Results reported in PubChem BioAssay (NCI).
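Tested at 5 concentrations; 48 h exposure; 96-well plates; endpoints linearly interpolated, else capped at highest concentration. At the TGI there is no net growth.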

Legend:
Test in all cases: DTP human tumour cell line panel, 48 h
[1] = test system: HOP-62 NSCLC
[2] = test system: SK-OV-3 ovarian
[3] = test system: SK-MEL-28 melanoma
[4] = test system: CAKI-1 renal
[5] = test system: MOLT-4 leukemia
[6] = test system: NCI-H226 lung
[7] = test system: TK-10 renal
[8] = test system: HCC-2998 colon
[9] = test system: NCI-H460 lung
[10] = test system: M14 melanoma
[11] = test system: OVCAR-5 ovarian
[12] = test system: HOP-92 NSCLC
[13] = test system: SNB-75 CNS
[14] = test system: A549 NSCLC
[15] = test system: DLD-1 colon
[16] = test system: UACC-257 melanoma
[17] = test system: KM12 colon
[18] = test system: LXFL 529 NSCLC
[19] = test system: SK-MEL-2 melanoma
[20] = test system: HL-60(TB) leukemia
[21] = test system: RPMI-8226 leukemia
[22] = test system: NCI-H23 lung
[23] = test system: UACC-62 melanoma
[24] = test system: SK-MEL-5 melanoma
[25] = test system: SNB-19 CNS
[26] = test system: OVCAR-8 ovarian
[27] = test system: RXF 393 renal
[28] = test system: EKVX NSCLC
[29] = test system: SNB-78 CNS
[30] = test system: COLO 205 colon
[31] = test system: LOX IMVI melanoma
[32] = test system: M19-MEL melanoma
[33] = test system: UO-31 renal
[34] = test system: OVCAR-3 ovarian
[35] = test system: K-562 leukemia
[36] = test system: NCI-H522 lung
[37] = test system: SF-295 CNS
[38] = test system: MALME-3M melanoma
[39] = test system: OVCAR-4 ovarian
[40] = test system: KM20L2 colon
[41] = test system: SF-268 CNS
[42] = test system: A498 renal
[43] = test system: CCRF-CEM leukemia
[44] = test system: 786-0 renal
[45] = test system: SF-539 CNS
[46] = test system: DMS 114 small cell lung
[47] = test system: SW-620 colon
[48] = test system: ACHN renal
[49] = test system: IGROV1 ovarian
[50] = test system: HT29 colon
[51] = test system: SN12C renal
[52] = test system: HCT-15 colon
[53] = test system: DMS 273 small cell lung
[54] = test system: XF 498 CNS
[55] = test system: U251 CNS
[56] = test system: HCT-116 colon
[57] = test system: SR leukemia

Measured: TGI

COc1ccc(C(=O)N2c3ccccc3N(C)n3cccc3C2CC(=O)O)cc1 (stereo not drawn)
not listed: [54] | [55] | [56] | [57]
> 100 µM: all other assays above

O=c1[nH]cnc2c1sc(=S)n2-c1ccccc1
not listed: [21] | [27]
> 100 µM: all other assays above
